Experimental data: DBAASP
Converted amounts (≈) assume the structure as drawn. Values belong to the molecule of their own block, whether it stands above or below them.

Columns and labels:
Assay in all cases: ≥ marks a high value that may be exact or a test limit, other limits are often not marked, values filed in µg/mL are converted to µM
[1] = system: Acinetobacter baumannii ATCC 19606
Acinetobacter baumannii = system: Acinetobacter baumannii
[2] = system: Bacillus subtilis ATCC 6051
[3] = system: Candida albicans ATCC 90028
[4] = system: Cryptococcus neoformans ATCC 208821
[5] = system: Escherichia coli ATCC 25922
[6] = system: Klebsiella pneumoniae ATCC 13883
[7] = system: Klebsiella pneumoniae ATCC 700603
[8] = system: Klebsiella pneumoniae ATCC BAA-2146
Klebsiella pneumoniae = system: Klebsiella pneumoniae
[9] = system: Pseudomonas aeruginosa ATCC 27853
Pseudomonas aeruginosa = system: Pseudomonas aeruginosa
[10] = system: Staphylococcus aureus ATCC 43300
[11] = system: Candida albicans ATCC 10231
Candida krusei CBS 573 = system: Candida krusei CBS 573
[12] = system: Candida parapsilosis CBS 604
[13] = system: Saccharomyces cerevisiae SZMC 0644
[14] = system: Enterococcus faecalis ATCC 19433
[15] = system: Enterococcus faecalis ATCC BAA-2316
[16] = system: Enterococcus faecalis ATCC BAA-2365
[17] = system: Escherichia coli ATCC BAA-2452
[18] = system: Pseudomonas aeruginosa ATCC BAA-2114
[19] = system: Staphylococcus aureus ATCC 29213
[20] = system: Staphylococcus aureus ATCC 33591
[21] = system: Staphylococcus aureus ATCC BAA-41
[22] = system: Staphylococcus epidermidis ATCC 12228
[23] = system: Bacillus subtilis subsp. spizizenii
[24] = system: Enterococcus faecalis ATCC 29212
[25] = system: Pseudomonas aeruginosa PAO1
[26] = system: Staphylococcus aureus ATCC 6538P
[27] = system: Staphylococcus aureus WKZ-2
[28] = system: Aspergillus flavus KCTC 9471
[29] = system: Aspergillus fumigatus KCTC 6145
Bacillus subtilis = system: Bacillus subtilis
Botrytis cinerea = system: Botrytis cinerea
[30] = system: Candida albicans KCTC 7270
[31] = system: Escherichia coli O157:H7 ATCC 43895
Escherichia coli = system: Escherichia coli
Fusarium verticillioides = system: Fusarium verticillioides
[32] = system: Listeria monocytogenes KCTC 3710
Proteus vulgaris = system: Proteus vulgaris
Saccharomyces cerevisiae = system: Saccharomyces cerevisiae
Salmonella typhimurium = system: Salmonella typhimurium
Staphylococcus aureus = system: Staphylococcus aureus
[33] = system: Staphylococcus epidermidis
Trichosporon beigelii = system: Trichosporon beigelii

SMILES: CC[C@H](C)[C@H](NC(=O)[C@@H]1CSSC[C@H](NC(=O)[C@H](CCCCN)NC(=O)CN)C(=O)N[C@@H](CCC(=O)O)C(=O)N[C@@H](Cc2c[nH]c3ccccc23)C(=O)N[C@@H](CCC(N)=O)C(=O)NCC(=O)NCC(=O)N[C@@H](CCC(N)=O)C(=O)N[C@@H](CC(C)C)C(=O)N[C@@H](CC(N)=O)C(=O)N1)C(=O)N[C@@H](C)C(=O)N[C@H](C(=O)O)[C@@H](C)O [GKCEWQGGQLNCIAT]
MIC [11]: > 62.2 µM
MIC (Candida krusei CBS 573): ≥ 62.2 µM
MIC [12]: ≥ 62.2 µM
MIC [13]: ≥ 62.2 µM

SMILES: CC[C@H](C)[C@H](NC(=O)[C@H](CCCCN)NC(=O)[C@H](CO)NC(=O)[C@H](Cc1ccccc1)NC(=O)[C@H](CC(C)C)NC(=O)[C@H](CCCCN)NC(=O)[C@H](CCC(=O)O)NC(=O)[C@H](CC(C)C)NC(=O)[C@H](CCCN=C(N)N)NC(=O)[C@H](CCCCN)NC(=O)[C@H](CO)NC(=O)[C@@H](NC(=O)[C@H](CCCCN)NC(=O)[C@H](CCCCN)NC(=O)[C@H](C)N)C(C)C)C(=O)N[C@@H](CCC(N)=O)C(=O)N[C@@H](CC(N)=O)C(=O)N[C@@H](CC(=O)O)C(=O)N[C@@H](CCCCN)C(N)=O [AKKVSKRLEKLFSKIQNDK]
MIC [28]: ≥ 50 µM
MIC [29]: ≥ 50 µM
MIC (Bacillus subtilis): 3.13 µM (≈ 7.07 µg/mL)
MIC (Botrytis cinerea): ≥ 50 µM
MIC [30]: 25 µM (≈ 56.5 µg/mL)
MIC [31]: 6.25 µM (≈ 14.1 µg/mL)
MIC (Escherichia coli): 6.25 µM (≈ 14.1 µg/mL)
MIC (Fusarium verticillioides): ≥ 50 µM
MIC [32]: 12.5 µM (≈ 28.2 µg/mL)
MIC (Proteus vulgaris): 12.5 µM (≈ 28.2 µg/mL)
MIC (Pseudomonas aeruginosa): 12.5 µM (≈ 28.2 µg/mL)
MIC (Saccharomyces cerevisiae): 25 µM (≈ 56.5 µg/mL)
MIC (Salmonella typhimurium): 12.5 µM (≈ 28.2 µg/mL)
MIC (Staphylococcus aureus): > 12.5 µM
MIC [33]: 12.5 µM (≈ 28.2 µg/mL)
MIC (Trichosporon beigelii): 12.5 µM (≈ 28.2 µg/mL)

More lines, now with the values ahead:

MIC [1]: > 7.21 µM
MIC (Acinetobacter baumannii): 7.21 µM (≈ 16 µg/mL)
MIC [2]: 0.225 µM (≈ 0.5 µg/mL)
MIC [3]: 7.21 µM (≈ 16 µg/mL)
MIC [4]: 1.8 µM (≈ 4 µg/mL)
MIC [5]: 1.8 µM (≈ 4 µg/mL)
MIC [6]: 7.21 µM (≈ 16 µg/mL)
MIC [7]: 7.21 µM (≈ 16 µg/mL)
MIC [8]: 7.21 µM (≈ 16 µg/mL)
MIC (Klebsiella pneumoniae): > 7.21 µM
MIC [9]: > 7.21 µM
MIC (Pseudomonas aeruginosa): > 7.21 µM
MIC [10]: > 7.21 µM
SMILES: CC[C@H](C)[C@@H]1NC(=O)CNC(=O)[C@H](CCCN=C(N)N)NC(=O)[C@H](Cc2ccc(O)cc2)NC(=O)[C@@H](NC(=O)[C@@H](NC(=O)[C@H](CCCN=C(N)N)NC(=O)[C@H](Cc2ccccc2)NC(=O)[C@H](C)NC(=O)[C@H](Cc2c[nH]c3ccccc23)NC(=O)[C@@H](N)CCCCN)C(C)C)CSSC[C@@H](C(=O)N[C@@H](Cc2ccc(O)cc2)C(=O)N[C@@H](CCCN=C(N)N)C(=O)N[C@@H](CCCN=C(N)N)C(=O)N[C@@H](CO)C(=O)N[C@@H](CCCN=C(N)N)C(=O)O)NC1=O [KWAFRVCYRGICYRRSR]

MIC [1]: 10 µM (≈ 36.3 µg/mL)
MIC [14]: 15 µM (≈ 54.5 µg/mL)
MIC [15]: 5 µM (≈ 18.2 µg/mL)
MIC [16]: 5 µM (≈ 18.2 µg/mL)
MIC [5]: 10 µM (≈ 36.3 µg/mL)
MIC [17]: 10 µM (≈ 36.3 µg/mL)
MIC [6]: 2.5 µM (≈ 9.08 µg/mL)
MIC [9]: 20 µM (≈ 72.7 µg/mL)
MIC [18]: 25 µM (≈ 90.8 µg/mL)
MIC [19]: 20 µM (≈ 72.7 µg/mL)
MIC [20]: 10 µM (≈ 36.3 µg/mL)
MIC [10]: 10 µM (≈ 36.3 µg/mL)
MIC [21]: 10 µM (≈ 36.3 µg/mL)
MIC [22]: 10 µM (≈ 36.3 µg/mL)
SMILES: CC[C@H](C)[C@H](NC(=O)[C@H](CCCN=C(N)N)NC(=O)[C@H](CCC(=O)O)NC(=O)[C@@H](NC(=O)[C@@H](NC(=O)[C@H](CCCN=C(N)N)NC(=O)[C@H](CCCCN)NC(=O)[C@H](Cc1ccccc1)NC(=O)[C@H](CCC(=O)O)NC(=O)[C@H](CCCCN)NC(=O)CNC(=O)[C@@H](NC(=O)[C@@H](NC(=O)[C@@H]1CCCN1C(=O)[C@H](CO)NC(=O)[C@H](CC(C)C)NC(=O)[C@H](CCCCN)NC(=O)[C@H](CCCCN)NC(=O)[C@H](Cc1ccccc1)NC(=O)[C@H](CC(C)C)NC(=O)[C@H](CCCCN)NC(=O)[C@H](CCCCN)NC(=O)[C@H](Cc1ccccc1)NC(=O)[C@@H](N)CCCCN)C(C)C)[C@@H](C)CC)[C@@H](C)CC)C(C)C)C(=O)N[C@@H](CCCCN)C(=O)N[C@@H](CCCN=C(N)N)C(=O)N[C@@H](Cc1ccccc1)C(=O)N[C@@H](CC(C)C)C(=O)N[C@@H](CCCN=C(N)N)C(=O)O [KFKKLFKKLSPVIGKEFKRIVERIKRFLR]

MIC [23]: ≥ 50.6 µM
MIC [24]: 25.3 µM (≈ 68 µg/mL)
MIC [5]: 12.6 µM (≈ 34 µg/mL)
MIC [7]: 50.6 µM (≈ 136 µg/mL)
MIC [25]: 50.6 µM (≈ 136 µg/mL)
MIC [19]: 3.16 µM (≈ 8.5 µg/mL)
MIC [26]: 6.32 µM (≈ 17 µg/mL)
MIC [27]: 3.16 µM (≈ 8.5 µg/mL)
SMILES: CC[C@H](C)[C@H](N)C(=O)N[C@@H](CCCCN)C(=O)N[C@@H](Cc1ccc(O)cc1)C(=O)N[C@@H](CC(C)C)C(=O)N[C@@H](CC(C)C)C(=O)N[C@H](C(=O)N[C@@H](CCCCN)C(=O)N[C@@H](CC(C)C)C(=O)N[C@@H](CCC(N)=O)C(=O)NCC(=O)N[C@@H](C)C(=O)N[C@@H](CO)C(=O)N[C@@H](CCC(N)=O)C(=O)N[C@@H](CCCCN)C(=O)N[C@H](C(=O)N[C@H](C(=O)N[C@H](C(=O)N[C@@H](CC(C)C)C(=O)N[C@@H](CCSC)C(=O)N[C@@H](CC(C)C)C(=O)N[C@@H](CCCN=C(N)N)C(=O)N[C@@H](CCCN=C(N)N)C(=O)N[C@@H](CC(N)=O)C(=O)O)[C@@H](C)O)[C@@H](C)CC)[C@@H](C)O)C(C)C [IKYLLVKLQGASQKTITLMLRRN]
